Laboratory results: patent US6465007B1, “Transgene expression in polarized cells” (Genzyme Corporation, priority 1998, dated 2002)

Key:
[1] = test system: polarized NHBE cells; test: Binding and internalization of cationic lipid:pDNA complexes (TOTO-1 label, trypan blue quenching)
Description: Cells were incubated with TOTO-1 or Rh-PE labeled complexes at 37° C. for the times noted in the figure legends. Following incubation, cells were washed 7 times with cold PBS and then fixed in 2% paraformadehyde for 20 min at 4° C. The membrane of the insert was removed and mounted using immuno-mount (Shandon, Pittsburgh, Pa.) containing 2 μg/ml DAPI (Molecular Probes). Bound and internalized complexes were observed under a fluorescence microscope (Olympus, AX-70). To observe only internalized complexes, cells were washed 2 times with cold PBS and then the fluorescence of surface bound complexes was quenched by a 10 min incubation with trypan blue (1 mg/ml; Diagnostic Systems, Inc., Gibbstown, N.J.) on ice. Cells were then washed an additional 5 times with cold PBS, fixed and mounted.
Polarized NHBE cells were cultured using a modified procedure based on the methods described by Yamaya et al., American Journal of Physiology, 265:L170-L177 (1993), Jiang et al., Science, 262:424-427 (1993) and Gray et al., American Journal of Respiratory Cell & Molecular Biology, 14:104-112 (1996). Briefly, first passage NHBE cells were plated at a density of 2.5×10^5 cells/cm^2 onto inserts (Millicell-PCF, 0.4 μm pore size, Millipore) coated with human placental collagen (Sigma). The culture medium was the same as that described above for growing NHBE cells as islands. Cultures were maintained under air-liquid interface conditions starting at day 3 following the initial seeding. Cells were considered ready for use when the trans-epithelial resistance was •1000 Ωcm^2.

[2] = test system: epithelial tight junctions of mouse trachea; test: Lanthanum precipitation in trachea under TEM; type: in vivo; details: treated animals vs control animals
Description: Openings in tight junctions were visualized using a method described previously (Shaklai and Tavassoli, 1977; and Schneeberger and McCormack, 1984) with modifications. Briefly, mouse trachea was fixed with 2.5% glutaraldehyde, 1% lanthanum nitrate in 0.1 M cacodylate buffer, pH 7.4, for 4 to 6 h at […]. The trachea was then rinsed and washed 16 h with three changes of ice-cold 6.8% sucrose in 0.1 M cacodylate buffer ˜pH 7.4). The samples were postfixed in 1% OsO4 in 0.1 M cacodylate buffer containing 1% lanthanum nitrate pH 7.4 at 4° C. for 1 h, and dehydrated and then embedded in epoxy resin.

[3] = test system: mouse trachea; test: Aerosolized Ad2βgal-4 after intranasal pre-treatment, X-gal staining; type: in vivo
Description: Viral aerosols were generated using a MiniHEART low flow jet nebulizer (Vortran, Sacramento, Calif.). The nebulizer was operated at 50 psi with compressed medical grade air at the maximum flow rate (˜2.21 pm). Animals were exposed to the aerosol in a whole-body exposure chamber. Ten ml of an Ad2βgal-4 solution (5×10^10 IU) was aerosolized over approximately one hour. Some mice were pre-treated with 50 μl of dH2O or EGTA solution by intranasal instillation 0, 15, 30, or 60 min before aerosolization, while others received no treatment prior to exposure to aerosol. X-gal staining was performed 3 days post aerosolization.
(§1) Cytochemical localization of Ogal expression in the trachea was observed using 5-bromo-4-chloro-3-indolyl-β-D-galactopyranoside (X-gal; Sigma). In brief, cannulated mouse lungs were fixed for 10 min by infusion of a fixing solution (2% paraformaldehyde and 0.2% glutaraldehyde in PBS). The lungs were then rinsed twice with 50 mM glycine in PBS, filled with X-gal solution, and stained overnight. Staining was stopped by transfering the samples into the fixing solution.

[4] = test system: AdV; test: Effect on AdV titer assessed on 293 cells; details: concentrations up to 0.4 M
Description: To rule out the possibility that EGTA might enhance the activity of AdV, the effects of EGTA on AdV titer were assessed on 293 cells.

[5] = test system: mouse trachea; test: Intranasal instillation of Ad2βgal-4, X-gal staining of airways; type: in vivo; details: for X-gal staining in the trachea: FIG. 4
Description: Female BALB/c mice 9-12 weeks of age were purchased from Taconic (Germantown, N.Y.). In some groups, mice were instilled intranasally with 25 μl of a solution containing EGTA (pH 7.5), followed by 25 μl of 5% sucrose in PBS containing Adβgal-4 (2×10^8 IU). In other groups, mice were co-instilled with 25 μl of a solution prepared by mixing equal volumes of a 2× (4×10^8 IU/25 μl) Ad2βgal-4 solution in 10% sucrose with 2×EGTA prior to instillation.
as §1
Trachea with staining levels were defined on a scale of 0 to 3, 0 indicating no cells staining for βgal, and a value of 3 indicating a large number of cells positive for the transgene. To evaluate the effect of EGTA concentration on AdV-mediated gene transfer in the trachea, mice were pre-treated with various concentrations of EGTA 0.5 h before AdV instillation. In some animals, AdV and EGTA were co-instilled. To exclude the possibility that any observed enhancement of expression was due to a hyperosmotic effect of the EGTA solution, a 20% mannitol solution (osmolarity similar to 0.4M EGTA) was included as a control in both the pre-treatment and co-instillation models.

[6] = test system: polarized NHBE cells; test: In vitro transfection with GL-67:pCF1-SEAP, secreted alkaline phosphatase in apical supernatant; type: cell-based, human
Description: Prior to transfection, polarized NHBE cells on inserts were incubated in either Opti-MEM, Opti-MEM containing 0.1% EGTA, or in Ca^2+-free media (Gibco) in both sides of the insert for 30 min at 37° C. The cells were then washed 3 times with Opti-MEM, and incubated with unlabeled GL-67:pCF1-SEAP (40:53 μM) for 4 h at 37° C., after which they were washed 3 times with Opti-MEM. One ml of culture medium then was added to the outside of the insert (basal side) and 100 μl added to the inside of the insert (apical side). The supernatant from the apical side was collected on day 2 after transfection, heated at 65° C. for 1 h to denature endogenous alkaline phosphatases (Berger et al., Gene, 1988), and assayed in triplicate for secreted alkaline phosphatase (SEAP) activity using an alkaline phosphatase reagent (Sigma) and human placental alkaline phosphatase (Calbiochem, La Jolla, Calif.) as a standard.
To inhibit NHBE cell proliferation, aphidicolin (0.5 μg/ml; Sigma) was added to culture medium on the basal side of the polarized NHBE cells for 18 h at 37° C. The cells were then transfected as described above except that the concentrations of cationic lipid and pDNA were 80 and 107 μM, respectively. After transfection, aphidicolin was present in the culture medium until the cells were harvested. […] Retinoic acid enhanced the inhibitory effect of aphidicolin on cell proliferation (Chou, R. H. et al., Cell & Tissue Kinetics, 18:387-97, 1985).

## O=C(O)CN(CCOCCOCCN(CC(=O)O)CC(=O)O)CC(=O)O [EGTA, Ethylene glycol bis(B-aminoethyl ether) N,N,N′,N′-tetraacetic acid]
[1]; Table 1, grades Very Effective / Mildly Effective
  Effects of Tight Junction Disrupting Compounds on Cationic Amphiphile: DNA Complex Binding: Very Effective
[1]; fully polarized NHBE cells pretreated before incubation with complexes
  complex internalization: increased dramatically
[1]; pretreatment of fully polarized NHBE cells
  toxicity: minimal toxicity
[1]; vs EDTA, poly-lysine, sodium caprate, decanoylcarnitine, sodium glycocholate
  increasing the amount of internalized complex, compared with other reagents known to open tight junctions: most effective
[2]
  penetration of lanthanum precipitates through epithelial tight junctions: penetrated through the epithelial tight junctions
[3]; 50 μl of 0.1 M intranasal 30 min prior to aerosol
  X-gal stained cells in trachea after AdV aerosol: significant number of positively stained cells
[3]; pretreated 1 h prior to aerosol
  X-gal stained cells in trachea after AdV aerosol: no significant increase
[4]
  effect on virus activity: no measurable effect
[5]; 0.4M pre-treatment group
  X-gal staining in the trachea: most consistent and highest X-gal staining
[5]; treated mice vs AdV alone, 2×10^8 IU
  X-gal staining in the trachea: marked increase
[5]; virus instilled 0.5 h after treatment
  gene expression in trachea, primary bronchi and small airways (X-gal staining): significantly enhanced
[6]; 0.5 h pre-treatment, GL-67:pCF1-SEAP 40:53 μM 4 h, assayed after 48 h, FIG. 1
  increase in SEAP expression: ~55 fold
[6]; treatment of polarized normal human bronchial epithelial cells
  ability to transfect with cationic lipid:pDNA complexes: significant enhancement
